According to patent publication US8729103B2, “Silent desensitizers of neuronal nAChR and methods of use thereof” (priority 2008, dated 2014):

Tests used:
[1] = in vivo; cited from earlier work
α4β2 nAChRs [2] = target: T1, α4β2 nAChRs (Homo sapiens, UniProt P17787+P43681); details: added alone; cited from earlier work
T1 construct: expressed in transfected cells; host or cells: SH-EP1 (SH-EP1-pcDNA-hα4β2)

[3] = stability of the isolated HCl salt on exposure to air; type: physicochemical; details: white solid, larger scale
Source text: A gram-scale synthesis of sazetidine A is outlined in FIG. 1a. The Boc-protected azidityl methyl alcohol 2 and 3-bromo-5-hydroxy pyridine (3) are both commercially available. Treatment with PPh3 and DEAD according to the Mitsunobu protocol formed ether derivative 4 in 70% yield. Palladium-mediated coupling of the bromo-substituted pyridine 4 with 5-hexyn-1-ol under modified Sonogashira conditions furnished Boc-protected sazetidine A in 73% yield. Deprotection of the Boc-group with HCl was expected to give sazetidine A in salt form as published in the literature.

α4β2 nAChRs [4] = target: T2, α4β2 nAChRs (Rattus norvegicus, UniProt P09483+P12390); assay: [3H]epibatidine competition binding, α4β2 nAChR; details: triazole in place of alkyne
T2 construct: expressed in transfected cells; host or cells: HEK293 (KXα4β2)
Description: The cell lines KXα3β4R2, expressing rat α3β4 nAChRs, and KXα4β2, expressing rat α4β2 nAChRs, were established previously by stably transfecting human embryonic kidney 293 cells with combinations of rat nAChR subunit genes. These cell lines are maintained in minimum essential medium supplemented with 10% fetal bovine serum, 100 units/mL penicillin G, […] streptomycin, and 0.7 mg/mL G418 (Geneticin) at 37° C. with 5% CO2 in a humidified incubator. The cell line SH-EP1-pcDNA-hα4β2, expressing human α4β2 nAChRs, was described previously and are available. […]
The Ki values of compounds for binding to α3β4, α4β2 and other nAChR sub-types will be measured by competition experiments with [3H]epibatidine or other labeled ligands. […]
In brief, cultured cells at above about 80% confluence will be removed from their flasks (80 cm^2) with a disposable cell scraper and will be placed in 10 mL of 50 mM Tris-HCl buffer, pH 7.4, 4° C. […] Nonspecific binding will be assessed in parallel incubations in the presence of 300 μM nicotine. […] The filter-retained radioactivity will be measured by liquid scintillation counting. […] Data from saturation and competition binding assays will be analyzed using Prism 4 (GraphPad Software, San Diego, Calif.).

Clc1ccc(C2CC3CCC2N3)cn1 (stereo not shown) [Epibatidine]
analgesic potency relative to morphine [1]: ~200 times

OCCCCC#Cc1cncc(OCC2CCN2)c1 (stereo not shown) [sazetidine A]
agonist activity at α4β2 nAChRs (α4β2 nAChRs [2]): only low agonist activity
stability of the HCl salt on exposure to air [3]: immediately resulted in decomposition

OCCCCc1cn(-c2cncc(OCC3CCN3)c2)nn1 (stereo not shown) [triazetidine O]
decrease in Ki relative to sazetidine A (α4β2 nAChRs [4]): approximately 10 fold
